In the NIST ThermoML archive (doi:10.1016/j.tca.2014.06.031):

Tests used:
[1] = refractive index (Na D-line) (dimensionless); xn = mol fraction of the nth substance listed; conditions: 101 kPa, Liquid, Standard Abbe refractometry
[2] = xn = mol fraction of the nth substance listed; conditions: 101 kPa, Liquid; for speed of sound: Frequency=3 MHz, Sing-around technique in a fixed-path interferometer; for mass density: Vibrating tube method

CCCCCCC(=O)O [heptanoic acid] + CCCCC(=O)O
Conditions | mass density, [2] [kg/m3] | refractive index, [1] | speed of sound, [2] [m/s]
293.15 K, x1 = 0.0641 | 937.59 | 1.4099 | 1238.8
293.15 K, x1 = 0.1207 | 936.02 | 1.4111 | 1242.9
293.15 K, x1 = 0.2317 | 933.14 | 1.41293 | 1250.6
293.15 K, x1 = 0.3413 | 930.46 | 1.41469 | 1257.9
293.15 K, x1 = 0.4383 | 928.25 | 1.41617 | 1264.1
293.15 K, x1 = 0.5402 | 926.08 | 1.4176 | 1270.3
293.15 K, x1 = 0.6442 | 923.97 | 1.41903 | 1276.3
293.15 K, x1 = 0.7342 | 922.25 | 1.42021 | 1281.4
293.15 K, x1 = 0.8259 | 920.58 | 1.42135 | 1286.4
293.15 K, x1 = 0.9173 | 919 | 1.42244 | 1291.2
293.15 K, x1 = 0.962 | 918.26 | 1.42297 | 1293.4
293.15 K, x1 = 1 | 917.65 | 1.42336 | 1295.4
298.15 K, x1 = 0.0641 | 933.06 | 1.40789 | 1220.8
298.15 K, x1 = 0.1207 | 931.51 | 1.40904 | 1225
298.15 K, x1 = 0.2317 | 928.68 | 1.41092 | 1232.8
298.15 K, x1 = 0.3413 | 926.05 | 1.41267 | 1240.1
298.15 K, x1 = 0.4383 | 923.88 | 1.41413 | 1246.3
298.15 K, x1 = 0.5402 | 921.74 | 1.41562 | 1252.5
298.15 K, x1 = 0.6442 | 919.68 | 1.41705 | 1258.6
298.15 K, x1 = 0.7342 | 917.98 | 1.4182 | 1263.7
298.15 K, x1 = 0.8259 | 916.35 | 1.41936 | 1268.7
298.15 K, x1 = 0.9173 | 914.79 | 1.42048 | 1273.5
298.15 K, x1 = 0.962 | 914.07 | 1.42099 | 1275.8
298.15 K, x1 = 1 | 913.47 | 1.42138 | 1277.7
303.15 K, x1 = 0.0641 | 928.52 | 1.40585 | 1202.7
303.15 K, x1 = 0.1207 | 926.99 | 1.40698 | 1206.9
303.15 K, x1 = 0.2317 | 924.22 | 1.40886 | 1214.7
303.15 K, x1 = 0.3413 | 921.64 | 1.41062 | 1222.1
303.15 K, x1 = 0.4383 | 919.51 | 1.41208 | 1228.3
303.15 K, x1 = 0.5402 | 917.4 | 1.41356 | 1234.6
303.15 K, x1 = 0.6442 | 915.38 | 1.41498 | 1240.7
303.15 K, x1 = 0.7342 | 913.71 | 1.4162 | 1245.8
303.15 K, x1 = 0.8259 | 912.11 | 1.41733 | 1250.8
303.15 K, x1 = 0.9173 | 910.58 | 1.41842 | 1255.7
303.15 K, x1 = 0.962 | 909.87 | 1.41896 | 1257.9
303.15 K, x1 = 1 | 909.29 | 1.41935 | 1259.9
308.15 K, x1 = 0.0641 | 923.98 | 1.40383 | 1184.8
308.15 K, x1 = 0.1207 | 922.48 | 1.40496 | 1189
308.15 K, x1 = 0.2317 | 919.75 | 1.40684 | 1196.9
308.15 K, x1 = 0.3413 | 917.23 | 1.40857 | 1204.2
308.15 K, x1 = 0.4383 | 915.14 | 1.41004 | 1210.5
308.15 K, x1 = 0.5402 | 913.07 | 1.41151 | 1216.8
308.15 K, x1 = 0.6442 | 911.08 | 1.41294 | 1223
308.15 K, x1 = 0.7342 | 909.45 | 1.41413 | 1228.1
308.15 K, x1 = 0.8259 | 907.87 | 1.41531 | 1233.1
308.15 K, x1 = 0.9173 | 906.38 | 1.41643 | 1238
308.15 K, x1 = 0.962 | 905.68 | 1.41695 | 1240.3
308.15 K, x1 = 1 | 905.11 | 1.41733 | 1242.2
313.15 K, x1 = 0.0641 | 919.44 | 1.40175 | 1167
313.15 K, x1 = 0.1207 | 917.97 | 1.40283 | 1171.2
313.15 K, x1 = 0.2317 | 915.29 | 1.40471 | 1179.1
313.15 K, x1 = 0.3413 | 912.82 | 1.40649 | 1186.6
313.15 K, x1 = 0.4383 | 910.77 | 1.40796 | 1192.9
313.15 K, x1 = 0.5402 | 908.74 | 1.40944 | 1199.2
313.15 K, x1 = 0.6442 | 906.79 | 1.41086 | 1205.4
313.15 K, x1 = 0.7342 | 905.19 | 1.41209 | 1210.5
313.15 K, x1 = 0.8259 | 903.64 | 1.41324 | 1215.6
313.15 K, x1 = 0.9173 | 902.17 | 1.41437 | 1220.4
313.15 K, x1 = 0.962 | 901.49 | 1.4149 | 1222.7
313.15 K, x1 = 1 | 900.94 | 1.4153 | 1224.7

CCCCC(=O)O [pentanoic acid] + CCCC(=O)O
Conditions | mass density, [2] [kg/m3] | refractive index, [1] | speed of sound, [2] [m/s]
293.15 K, x2 = 0 | 939.41 | 1.4084 | 1234
293.15 K, x2 = 0.0472 | 940.14 | 1.40813 | 1232.3
293.15 K, x2 = 0.0938 | 940.86 | 1.4077 | 1230.6
293.15 K, x2 = 0.1944 | 942.46 | 1.40676 | 1226.9
293.15 K, x2 = 0.2928 | 944.08 | 1.40581 | 1223.3
293.15 K, x2 = 0.3946 | 945.82 | 1.40481 | 1219.5
293.15 K, x2 = 0.4922 | 947.56 | 1.40383 | 1215.8
293.15 K, x2 = 0.5938 | 949.45 | 1.40278 | 1211.9
293.15 K, x2 = 0.6929 | 951.38 | 1.40174 | 1208
293.15 K, x2 = 0.7973 | 953.48 | 1.4006 | 1203.8
293.15 K, x2 = 0.895 | 955.52 | 1.39949 | 1199.9
298.15 K, x2 = 0 | 934.85 | 1.40641 | 1216
298.15 K, x2 = 0.0472 | 935.55 | 1.40607 | 1214.3
298.15 K, x2 = 0.0938 | 936.26 | 1.40563 | 1212.6
298.15 K, x2 = 0.1944 | 937.82 | 1.40469 | 1208.9
298.15 K, x2 = 0.2928 | 939.4 | 1.40374 | 1205.2
298.15 K, x2 = 0.3946 | 941.11 | 1.40274 | 1201.4
298.15 K, x2 = 0.4922 | 942.81 | 1.40175 | 1197.6
298.15 K, x2 = 0.5938 | 944.66 | 1.4007 | 1193.6
298.15 K, x2 = 0.6929 | 946.54 | 1.39965 | 1189.7
298.15 K, x2 = 0.7973 | 948.6 | 1.3985 | 1185.4
298.15 K, x2 = 0.895 | 950.6 | 1.39744 | 1181.4
303.15 K, x2 = 0 | 930.29 | 1.40438 | 1197.9
303.15 K, x2 = 0.0472 | 930.96 | 1.40399 | 1196.2
303.15 K, x2 = 0.0938 | 931.65 | 1.40355 | 1194.5
303.15 K, x2 = 0.1944 | 933.18 | 1.4026 | 1190.7
303.15 K, x2 = 0.2928 | 934.73 | 1.40164 | 1187
303.15 K, x2 = 0.3946 | 936.39 | 1.40063 | 1183.1
303.15 K, x2 = 0.4922 | 938.05 | 1.39964 | 1179.3
303.15 K, x2 = 0.5938 | 939.87 | 1.39857 | 1175.2
303.15 K, x2 = 0.6929 | 941.71 | 1.39751 | 1171.2
303.15 K, x2 = 0.7973 | 943.73 | 1.39639 | 1166.9
303.15 K, x2 = 0.895 | 945.68 | 1.39533 | 1162.8
308.15 K, x2 = 0 | 925.73 | 1.40234 | 1179.9
308.15 K, x2 = 0.0472 | 926.37 | 1.4019 | 1178.2
308.15 K, x2 = 0.0938 | 927.04 | 1.40146 | 1176.5
308.15 K, x2 = 0.1944 | 928.53 | 1.40051 | 1172.7
308.15 K, x2 = 0.2928 | 930.05 | 1.39955 | 1168.9
308.15 K, x2 = 0.3946 | 931.68 | 1.39853 | 1164.9
308.15 K, x2 = 0.4922 | 933.3 | 1.39753 | 1161
308.15 K, x2 = 0.5938 | 935.08 | 1.39646 | 1156.9
308.15 K, x2 = 0.6929 | 936.87 | 1.39541 | 1152.9
308.15 K, x2 = 0.7973 | 938.85 | 1.39431 | 1148.5
308.15 K, x2 = 0.895 | 940.76 | 1.39326 | 1144.3
313.15 K, x2 = 0 | 921.16 | 1.4003 | 1162.1
313.15 K, x2 = 0.0472 | 921.78 | 1.39983 | 1160.4
313.15 K, x2 = 0.0938 | 922.44 | 1.39937 | 1158.6
313.15 K, x2 = 0.1944 | 923.89 | 1.39841 | 1154.8
313.15 K, x2 = 0.2928 | 925.37 | 1.39745 | 1151
313.15 K, x2 = 0.3946 | 926.97 | 1.39642 | 1146.9
313.15 K, x2 = 0.4922 | 928.55 | 1.39542 | 1143
313.15 K, x2 = 0.5938 | 930.29 | 1.39437 | 1138.9
313.15 K, x2 = 0.6929 | 932.04 | 1.39332 | 1134.7
313.15 K, x2 = 0.7973 | 933.98 | 1.39222 | 1130.2
313.15 K, x2 = 0.895 | 935.84 | 1.39118 | 1126
